Source: patent US9359308B2, “Pyrazine kinase inhibitors” (Portola Pharmaceuticals, Inc., priority 2011, dated 2016)

Target: T1, full length active recombinant SYK enzyme (Homo sapiens, UniProt P43405)
T1 construct: full length active recombinant SYK enzyme (Millipore, Calif.); purchased Millipore
Assay: Inhibition of Syk tyrosine phosphorylation activity (LANCE TR-FRET kinase assay)
Type: biochemical
Conditions: activity in the Syk assays, class symbols
Outline: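 1 nM full-length active recombinant SYK phosphorylated 550 nM biotin-DEEDYESP-OH with 100 μM ATP in 50 mM Tris pH 7.5, 5 mM MgCl2, 1 mM DTT and 3% DMSO for 1 h at room temperature. After EDTA quench, Eu-anti-phosphotyrosine/SA-APC TR-FRET was read after 1 h. IC50s came from non-linear regression.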

SMILES	IC50 [nM]
CC[C@@H](Nc1cnc(C(N)=O)c(Nc2cnc3cccnc3c2)n1)C(N)=O [Example 383, (R)-3-(1,5-naphthyridin-3-ylamino)-5-(1-amino-1-oxobutan-2-ylamino)pyrazine-2-carboxamide]	10 to 100
NC(=O)c1ncc(N[C@@H]2CCCC(F)(F)[C@@H]2N)nc1Nc1ccc2cccnc2c1 [Example 384, 5-((1R,2R)-2-amino-3,3-difluorocyclohexylamino)-3-(quinolin-7-ylamino)pyrazine-2-carboxamide]	10 to 100
NC(=O)c1ncc(N[C@@H]2CCCC(F)(F)[C@@H]2N)nc1Nc1ccc2ccncc2c1 [Example 385, 5-((1R,2R)-2-amino-3,3-difluorocyclohexylamino)-3-(isoquinolin-7-ylamino)pyrazine-2-carboxamide]	1 to 10
CC[C@@H](Nc1cnc(C(N)=O)c(Nc2ccnc3ncccc23)n1)C(N)=O [Example 386, (R)-3-(1,8-naphthyridin-4-ylamino)-5-(1-amino-1-oxobutan-2-ylamino)pyrazine-2-carboxamide]	1 to 10
NC(=O)c1ncc(N[C@@H]2CCCC(F)(F)[C@@H]2N)nc1Nc1cc(-c2ccccc2)no1 [Example 387, 5-((1R,2R)-2-amino-3,3-difluorocyclohexylamino)-3-(3-phenylisoxazol-5-ylamino)pyrazine-2-carboxamide]	> 1000
NC(=O)c1ncc(N[C@H](Cc2c[nH]c3ccccc23)C(N)=O)nc1Nc1ccc2ncccc2c1 [Example 388, (R)-5-(1-amino-3-(1H-indol-3-yl)-1-oxopropan-2-ylamino)-3-(quinolin-6-ylamino)pyrazine-2-carboxamide]	1 to 10
Cc1cc(Nc2nc(N[C@H](Cc3c[nH]c4ccccc34)C(N)=O)cnc2C(N)=O)sn1 [Example 389, (R)-5-(1-amino-3-(1H-indol-3-yl)-1-oxopropan-2-ylamino)-3-(3-methylisothiazol-5-ylamino)pyrazine-2-carboxamide]	1 to 10
Cc1cc(Nc2nc(N[C@H](CC3CCCCC3)C(N)=O)cnc2C(N)=O)sn1 [Example 390, (R)-5-(1-amino-3-cyclohexyl-1-oxopropan-2-ylamino)-3-(3-methylisothiazol-5-ylamino)pyrazine-2-carboxamide]	10 to 100
Cn1ccc2cc(Nc3nc(N[C@@H]4CCCC(F)(F)[C@@H]4N)cnc3C(N)=O)ccc21 [Example 391, 5-((1R,2R)-2-amino-3,3-difluorocyclohexylamino)-3-(1-methyl-1H-indol-5-ylamino)pyrazine-2-carboxamide]	1 to 10
Cn1ccc2c(Nc3nc(N[C@@H]4CCCC(F)(F)[C@@H]4N)cnc3C(N)=O)cccc21 [Example 392, 5-((1R,2R)-2-amino-3,3-difluorocyclohexylamino)-3-(1-methyl-1H-indol-4-ylamino)pyrazine-2-carboxamide]	1 to 10
CC[C@@H](Nc1cnc(C(N)=O)c(Nc2ccc3c(ccn3C)c2)n1)C(N)=O [Example 393, (R)-5-(1-amino-1-oxobutan-2-ylamino)-3-(1-methyl-1H-indol-5-ylamino)pyrazine-2-carboxamide]	1 to 10
CC[C@@H](Nc1cnc(C(N)=O)c(Nc2cccc3c2ccn3C)n1)C(N)=O [Example 394, (R)-5-(1-amino-1-oxobutan-2-ylamino)-3-(1-methyl-1H-indol-4-ylamino)pyrazine-2-carboxamide]	1 to 10
Cc1cc(Nc2nc(N[C@@H](C(N)=O)c3ccccc3)cnc2C(N)=O)sn1 [Example 395, (R)-5-(2-amino-2-oxo-1-phenylethylamino)-3-(3-methylisothiazol-5-ylamino)pyrazine-2-carboxamide]	1 to 10
Cn1ccc2cc(Nc3nc(N[C@H](CC4CC4)C(N)=O)cnc3C(N)=O)ccc21 [Example 396, (R)-5-(1-amino-3-cyclopropyl-1-oxopropan-2-ylamino)-3-(1-methyl-1H-indol-5-ylamino)pyrazine-2-carboxamide]	1 to 10
Cn1ccc2c(Nc3nc(N[C@H](CC4CC4)C(N)=O)cnc3C(N)=O)cccc21 [Example 397, (R)-5-(1-amino-3-cyclopropyl-1-oxopropan-2-ylamino)-3-(1-methyl-1H-indol-4-ylamino)pyrazine-2-carboxamide]	1 to 10
Cc1cc(Nc2nc(N[C@H](CC(F)(F)F)C(N)=O)cnc2C(N)=O)sn1 [Example 398, (R)-5-(1-amino-4,4,4-trifluoro-1-oxobutan-2-ylamino)-3-(3-methylisothiazol-5-ylamino)pyrazine-2-carboxamide]	1 to 10
Cc1cc(Nc2nc(N[C@H](CC[S+](C)[O-])C(N)=O)cnc2C(N)=O)sn1 (stereo partly drawn) [Example 399, 5-((2R)-1-amino-4-(methylsulfinyl)-1-oxobutan-2-ylamino)-3-(3-methylisothiazol-5-ylamino)pyrazine-2-carboxamide]	100 to 1000
Cc1cc(Nc2nc(N[C@H](CCS(C)(=O)=O)C(N)=O)cnc2C(N)=O)sn1 [Example 400, (R)-5-(1-amino-4-(methylsulfonyl)-1-oxobutan-2-ylamino)-3-(3-methylisothiazol-5-ylamino)pyrazine-2-carboxamide]	10 to 100
Cc1cc(Nc2nc(NC3(C(N)=O)CCCCC3)cnc2C(N)=O)sn1 [Example 401, 5-(1-carbamoylcyclohexylamino)-3-(3-methylisothiazol-5-ylamino)pyrazine-2-carboxamide]	10 to 100
COC[C@@H](Nc1cnc(C(N)=O)c(Nc2cc(C)ns2)n1)C(N)=O [Example 402, (R)-5-(1-amino-3-methoxy-1-oxopropan-2-ylamino)-3-(3-methylisothiazol-5-ylamino)pyrazine-2-carboxamide]	10 to 100
CC[C@@H](Nc1cnc(C(N)=O)c(Nc2cc(-c3ccccc3)ns2)n1)C(N)=O [Example 403, (R)-5-(1-amino-1-oxobutan-2-ylamino)-3-(3-phenylisothiazol-5-ylamino)pyrazine-2-carboxamide]	10 to 100
CC[C@@H](Nc1cnc(C(N)=O)c(Nc2ccc3ncncc3c2)n1)C(N)=O [Example 404, (R)-5-(1-amino-1-oxobutan-2-ylamino)-3-(quinazolin-6-ylamino)pyrazine-2-carboxamide]	10 to 100
NC(=O)c1ncc(N[C@@H]2CCCC(F)(F)[C@@H]2N)nc1Nc1ccc2ncncc2c1 [Example 405, 5-((1R,2R)-2-amino-3,3-difluorocyclohexylamino)-3-(quinazolin-6-ylamino)pyrazine-2-carboxamide]	1 to 10
NC(=O)c1ncc(N[C@H](CC2CC2)C(N)=O)nc1Nc1cnc2cccnc2c1 [Example 406, (R)-3-(1,5-naphthyridin-3-ylamino)-5-(1-amino-3-cyclopropyl-1-oxopropan-2-ylamino)pyrazine-2-carboxamide]	1 to 10
CC(C)C[C@@H](Nc1cnc(C(N)=O)c(Nc2cnc3cccnc3c2)n1)C(N)=O [Example 407, (R)-3-(1,5-naphthyridin-3-ylamino)-5-(1-amino-4-methyl-1-oxopentan-2-ylamino)pyrazine-2-carboxamide]	1 to 10
Cc1cc(Nc2nc(N[C@@H]3CCOC[C@@H]3N)cnc2C(N)=O)sn1 [Example 408, 5-((3R,4R)-3-aminotetrahydro-2H-pyran-4-ylamino)-3-(3-methylisothiazol-5-ylamino)pyrazine-2-carboxamide]	1 to 10
